Experimental findings from patent publication US8211909B2, “Treatment of antibiotic-resistant bacteria infection” (TaiGen Biotechnology Co., Ltd., priority 2008, dated 2012) are described below.

In brackets after ≈: the same amount, converted by molar mass. Read-outs that look alike come from different tables or passages of the source.

The subject of experiment [1] is Methicillin-resistant Staphylococcus aureus (MRSA) isolates. The experiment in a line: MIC by broth microdilution (CLSI) against CAN-ICU MRSA isolates. Type of experiment: cell-based. Conditions: Staphylococcus aureus. An excerpt:
MRSA isolates (n=193) were obtained as part of the Canadian National Intensive Care Unit (CAN-ICU) Study. 19 medical centers from all regions of Canada with active ICUs participated in the CAN-ICU study included. They were requested to only obtain “clinically significant” specimens from patients with a presumed infectious disease. Surveillance swabs, eye, ear, nose and throat swabs were excluded. Anaerobic organisms and fungal organisms were also excluded.
From September 2005-June 2006 (inclusive), each center collected a maximum of 300 consecutive pathogens isolated from blood, urine, tissue/wound, and respiratory specimens (one pathogen per cultured site per patient) of ICU patients. These isolates were shipped to the reference laboratory (Health Sciences Centre, Winnipeg, Canada) on Amies charcoal swabs, subcultured in appropriate media, and stocked in skim milk at −80° C.
All isolates underwent mecA PCR, as well as molecular characterization (including PVL analysis and fingerprinting), as previously described, to assess whether they were community-associated or healthcare-associated (Christianson et al., J Clin Microbiol. 2007, 45 (6): 1904-11; Mulvey et al., J Clin. Microbiol. 2001, 39(10): 3481-5; Mulvey et al., Emerg Infect Dis. 2005,11(6): 844-50; Oliveira et al., Antimicrob Agents Chemother. 2002, 46(7): 2155-61). The isolates were also subtyped using pulsed-field gel electrophoresis (PFGE) following the Canadian standardized protocol as previously described (Mulvey et al., J Clin Microbiol. 2001, 39(10): 3481-5). Their PFGE fingerprints thus obtained were analyzed with BioNumerics v3.5 (Applied Maths St. Marten-Latem, Belgium) using a position tolerance of 1.0 and an optimization of 1.0. Strain relatedness was determined as previously described (Tenover et al., 1995). The fingerprints of the isolates were compared to the national MRSA fingerprint database and were grouped into one of 10 Canadian epidemic MRSA (CMRSA-1, CMRSA-2, etc) as previously described (Mulvey et al., Emerg Infect Dis. 2005,11(6):844-50).
Compound 1 and other antibiotics were tested for their inhibitory activity against the MRSA isolates using the broth microdilution guidelines as stipulated by the Clinical and Laboratory Standards Institute.

The subject of experiment [2] is Staphylococcus aureus strains (MRSA, hVISA, VISA, VRSA, quinolone-resistant MRSA). The experiment in a line: MIC by agar dilution against Staphylococcal strains (MRSA, hVISA, VISA, VRSA, quinolone-resistant MRSA). It counts as cell-based. The method, then:
Compound 1 was tested for its inhibitory effect against 26 Methicillin-resistant Staphylococcus aureus (MRSA) strains, 2 hetero-Vancomycin intermediate Staphylococcus aureus (hVISA) strains, 24 Vancomycin-intermediate Staphylococcus aureus (VISA) strains, 5 Vancomycin-resistant Staphylococcus aureus (VRSA) strains, and 31 quinolone-resistant Vancomycin-susceptibale MRSA strains with defined mutations in QRDR. These mutations were determined by sequencing analysis of the QRDR (gyrA, gyrB, grlA, and grlB). Efflux testing was performed by the reserpine method (Brenwald, et al., Antimicrob. Agents Chemother. 1998, 42: 2032-2035).
For orientation: In agar dilution, organisms are placed on agar that contains the substance at set levels.

Another experiment concerns H. pylori isolates. In words: MIC by agar dilution against 200 H. pylori isolates (Taiwan). Type of experiment: cell-based, Helicobacter pylori. As to conditions: 200 H. pylori isolates; resistance: amoxicillin MICs≧0.5, clarithromycin ≧1, metronidazole ≧8, ciprofloxacin ≧1, levofloxacin ≧1 μg/mL. The procedure: MICs were determined using the agar dilution methods recommended by the Clinical and Laboratory Standards Institute (CLSI-M100-S18).

Where [3] appears, read: Staphylococcus aureus, MRSA (26).
The mark [4] stands for this setting: Staphylococcus aureus, Quinolone-resistant MRSA (31).
Where [5] appears, read: Staphylococcus aureus, hVISA(2) + VISA (24) + VRSA (5).
[6] abbreviates: Staphylococcus aureus, read-out: MIC Range, MRSA (26).
[7] abbreviates: Staphylococcus aureus, read-out: MIC Range, Quinolone-resistant MRSA (31).
Where [8] appears, read: hVISA(2) + VISA (24) + VRSA (5).

As a reminder, the MIC50 is the lowest concentration that inhibits either 50% of growth or 50% of the strains tested, depending on the study. Broadly, the MIC90 is the lowest concentration that inhibits either 90% of growth or 90% of the strains tested, depending on the study. Broadly, the MIC is the smallest concentration in the dilution series that meets the test's criterion for growth inhibition. With `C[C@@H](O)[C@H]1C(=O)N2C(C(=O)O)=C(S[C@@H]3CN[C@H](C(=O)N(C)C)C3)[C@H](C)[C@H]12` [Meropenem], in experiment [1] (MRSA (n = 193), read-out: MIC50), the MIC50 is 16 µg/mL (≈ 41.7 µM). Moreover, the MIC90 in experiment [1] (MRSA (n = 193), read-out: MIC90) is greater than 32 µg/mL. The MIC was greater than 32 µg/mL in experiment [1] (MRSA (n = 193), read-out: MIC Range Max) and 0.25 µg/mL (≈ 0.652 µM) in experiment [1] (MRSA (n = 193), read-out: MIC Range Min).
As to `CN(C)c1cc(NC(=O)CNC(C)(C)C)c(O)c2c1C[C@H]1C[C@H]3[C@H](N(C)C)C(O)=C(C(N)=O)C(=O)[C@@]3(O)C(O)=C1C2=O` [Tigecycline], the MIC50 in experiment [1] (MRSA) is 0.25 µg/mL (≈ 0.427 µM); in experiment [1] (MRSA / USA100) it was 0.25 µg/mL (≈ 0.427 µM); in experiment [1] (MRSA / USA200) it was 0.5 µg/mL (≈ 0.854 µM); in experiment [1] (MRSA / USA300), 0.25 µg/mL (≈ 0.427 µM); in experiment [1] (MRSA / USA400), 0.25 µg/mL (≈ 0.427 µM); in experiment [1] (MRSA / USA600), 0.25 µg/mL (≈ 0.427 µM). For the same molecule, the MIC50 in experiment [2] (setting [3]) was determined as 0.25 µg/mL (≈ 0.427 µM); in experiment [2] (setting [4]) it was 0.12 µg/mL (≈ 0.205 µM); in experiment [2] (setting [5]) it was 0.25 µg/mL. For the same molecule, the MIC90 came out at 0.5 µg/mL (≈ 0.854 µM) in experiment [1] (MRSA); 0.25 µg/mL (≈ 0.427 µM) in experiment [1] (MRSA / USA100); 0.5 µg/mL (≈ 0.854 µM) in experiment [1] (MRSA / USA200); 0.5 µg/mL (≈ 0.854 µM) in experiment [1] (MRSA / USA300); 0.25 µg/mL (≈ 0.427 µM) in experiment [1] (MRSA / USA400); 0.5 µg/mL (≈ 0.854 µM) in experiment [1] (MRSA / USA600). The results for the MIC90 in experiment [2] (setting [3]), in experiment [2] (setting [4]) and in experiment [2] (setting [5]) were 0.5 µg/mL (≈ 0.854 µM), 0.25 µg/mL (≈ 0.427 µM) and 0.5 µg/mL, respectively. Further, the MIC in experiment [1] (MRSA, read-out: MIC Range Max) is 0.5 µg/mL (≈ 0.854 µM); in experiment [1] (MRSA, read-out: MIC Range Min), 0.12 µg/mL (≈ 0.205 µM); in experiment [2] (setting [6]), 0.12 to 0.5 µg/mL (≈ 0.205 to 0.854 µM); in experiment [2] (setting [7]) it was 0.12 to 0.5 µg/mL (≈ 0.205 to 0.854 µM); in experiment [2] (Staphylococcus aureus, read-out: MIC Range, hVISA(2) + VISA (24) + VRSA (5)), 0.06 to 0.5 µg/mL.
As for `CN[C@H](CC(C)C)C(=O)N[C@H]1C(=O)N[C@@H](CC(N)=O)C(=O)N[C@H]2C(=O)N[C@H]3C(=O)N[C@H](C(=O)N[C@H](C(=O)O)c4cc(O)cc(O)c4-c4cc3ccc4O)[C@H](O)c3ccc(c(Cl)c3)Oc3cc2cc(c3O[C@@H]2O[C@H](CO)[C@@H](O)[C@H](O)[C@H]2O[C@H]2C[C@](C)(N)[C@H](O)[C@H](C)O2)Oc2ccc(cc2Cl)[C@H]1O` [Vancomycin], the MIC50 in experiment [1] (MRSA) was found to be 1 µg/mL (≈ 0.69 µM); in experiment [1] (MRSA / USA100), 1 µg/mL (≈ 0.69 µM); in experiment [1] (MRSA / USA200) it was 0.5 µg/mL (≈ 0.345 µM); in experiment [1] (MRSA / USA300) it was 0.5 µg/mL (≈ 0.345 µM); in experiment [1] (MRSA / USA400), 1 µg/mL (≈ 0.69 µM); in experiment [1] (MRSA / USA600), 1 µg/mL (≈ 0.69 µM). For the same molecule, the MIC50 in experiment [2] (setting [3]) turned out to be 1 µg/mL (≈ 0.69 µM); in experiment [2] (setting [4]) it was 1 µg/mL (≈ 0.69 µM); in experiment [2] (setting [5]), 4 µg/mL. Moreover, the MIC90 came to 1 µg/mL (≈ 0.69 µM) in experiment [1] (MRSA); 1 µg/mL (≈ 0.69 µM) in experiment [1] (MRSA / USA100); 0.5 µg/mL (≈ 0.345 µM) in experiment [1] (MRSA / USA200); 0.5 µg/mL (≈ 0.345 µM) in experiment [1] (MRSA / USA300); 1 µg/mL (≈ 0.69 µM) in experiment [1] (MRSA / USA400); 1 µg/mL (≈ 0.69 µM) in experiment [1] (MRSA / USA600). In addition, the MIC90 was found to be 1 µg/mL (≈ 0.69 µM) in experiment [2] (setting [3]), 1 µg/mL (≈ 0.69 µM) in experiment [2] (setting [4]) and 32 µg/mL in experiment [2] (setting [5]). Moreover, the MIC in experiment [1] (MRSA, read-out: MIC Range Max) was 1 µg/mL (≈ 0.69 µM); in experiment [1] (MRSA, read-out: MIC Range Min) it was 0.5 µg/mL (≈ 0.345 µM); in experiment [2] (setting [6]) it was 0.5 to 1 µg/mL (≈ 0.345 to 0.69 µM); in experiment [2] (setting [7]) it was 0.5 to 2 µg/mL (≈ 0.345 to 1.38 µM).
As to `CC1(C)S[C@@H]2[C@H](NC(=O)[C@H](N)c3ccc(O)cc3)C(=O)N2[C@H]1C(=O)O` [amoxicillin], in the experiment with H. pylori isolates, the “share of isolates resistant” value is on record as 2%.
The same measure, in the same setting: then `Cc1ncc([N+](=O)[O-])n1CCO` [metronidazole], with 29%.
Consider Teicoplanin, for which the MIC50 was 0.5 µg/mL in experiment [2] (MRSA (26)), 0.5 µg/mL in experiment [2] (Quinolone-resistant MRSA (31)) and 8 µg/mL in experiment [2] (setting [8]). For the same molecule, the results for the MIC90 in experiment [2] (MRSA (26)), in experiment [2] (Quinolone-resistant MRSA (31)) and in experiment [2] (setting [8]) were 1 µg/mL, 1 µg/mL and 16 µg/mL, respectively. For the same molecule, the “MIC Range” value in experiment [2] (MRSA (26)) lay within 0.5 to 1 µg/mL; in experiment [2] (Quinolone-resistant MRSA (31)), 0.25 to 2 µg/mL; in experiment [2] (setting [8]), 1 to 32 µg/mL.
